Data from PMC12598851, “Exploiting Avidity Effects for the Discovery of Low Affinity Protein-Binding Fragments” (Journal of Medicinal Chemistry, 2025).
Several values for one entry are separate records, joined by “and”; a condition that tells them apart may be missing. Equal entries are not always repeated. Entries after “also recorded” stand apart in the source; their conditions may differ. Where two headings read alike, the source gives them in different places. Each block holds one compound with its values, some of them ahead of it.

Assays:
Rpn13 PRU = target: T1, Rpn13 PRU (Homo sapiens, UniProt Q16186); test: SPR, soluble compound binding to biotinylated Rpn13 PRU captured on SA chip
T1 construct: FLAG (N); His10 (C); made in house; host or cells: E. coli BL21 (DE3) codon plus RP
T1 sequence (Q16186 18-131 limits assumed): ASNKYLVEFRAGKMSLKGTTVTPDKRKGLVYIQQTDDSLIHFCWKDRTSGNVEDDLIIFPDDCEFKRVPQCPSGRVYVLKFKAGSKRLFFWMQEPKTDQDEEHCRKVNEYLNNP
Experimental: 4000–5000 Ru of Biotinylated Rpn13-PRU (50 μg/mL in running buffer (20 mM phosphate buffer with 2.7 mM KCl, 137 mM NaCl, 0.05% Surfactant P20, 1 mM DTT and 1 mM EDTA)) was captured on a SA sensor chip (Cytiva). Testing compounds were evaluated using the multiple-cycle kinetic/affinity method in running buffer with indicated association and dissociation time, and a flow rate of 40 μL/min. Data was analyzed with the BIAcore Insight Evaluation Software and the binding affinities were obtained by fitting the sensor grams to the 1:1 binding kinetics, steady-state affinity models or steady-state affinity model with constant R max.

[1] = target: T2, GST-Rpn13 PRU fusion protein (UniProt P08515+Q16186); test: Bead-displayed fragment screen against GST-Rpn13 PRU fusion protein; format: binding, human; settings: GST-Rpn13 PRU 500 nM, A647 anti-FLAG antibody staining
T2 construct: the human Rpn13 PRU (pleckstrin-like receptor for ubiquitin) domain is linked to the C-terminus of GST; His6 (C); made in house; host or cells: E. coli BL21 (DE3) codon plus RP
T2 sequence (P08515+Q16186 fused): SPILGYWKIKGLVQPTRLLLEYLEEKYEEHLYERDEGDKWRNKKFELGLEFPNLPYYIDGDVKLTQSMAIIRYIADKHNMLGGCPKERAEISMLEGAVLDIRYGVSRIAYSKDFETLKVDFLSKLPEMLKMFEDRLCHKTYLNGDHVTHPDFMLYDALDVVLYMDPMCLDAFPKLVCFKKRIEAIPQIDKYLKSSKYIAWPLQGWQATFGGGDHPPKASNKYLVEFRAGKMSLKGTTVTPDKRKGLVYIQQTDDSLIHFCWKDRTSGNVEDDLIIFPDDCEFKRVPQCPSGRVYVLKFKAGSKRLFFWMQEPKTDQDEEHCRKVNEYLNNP
Experimental: The beads (one compound per well) were then incubated with GST-Rpn13 PRU fusion protein (500 nM) and, after washing, the amount of protein retained on the beads was measured after staining with Alexafluor-647 (A647)-labeled anti-FLAG antibody using a plate reader (Figure a). […] Next a competition experiment was performed in which the GST-Rpn13 PRU fusion protein was preincubated with excess glutathione (1 mM) to determine if the fragments, to some extent, engage the peptide-binding site of GST. […] We speculate that A8 and A88 probably bind to both GST and Rpn13, explaining the high signal in the original screen (Figure b). Finally, all five hit-displaying beads were incubated with only Alexa Fluor 647–labeled anti-FLAG antibody to confirm that the hits are not antibody binders (Figure S11).
General notes: • At each step, contents were mixed by pipetting up and down 3–5 times. • All steps following the addition of Alexa Fluor 647 anti-FLAG Tag Antibody were conducted in the dark. • Alexa Fluor 647 anti-FLAG Tag Antibody was purchased from commercial sources; (BioLengend cat #637316). […]
Each sample was transferred to a black 384-well plate in triplicate (3 × 20 μL per well). […] Fluorescence intensity was measured using a TECAN plate reader. Background fluorescence (from blank wells) was subtracted before further data analysis.

[2] = target: T3, Rpn2-binding surface of Rpn13 (GST-Rpn13 PRU) (Homo sapiens, UniProt Q16186); test: Competition assay with Rpn2 peptide for GST-Rpn13 PRU fusion protein; settings: protein preincubated with Rpn2 peptide 100 μM
T3 construct: the human Rpn13 PRU (pleckstrin-like receptor for ubiquitin) domain is linked to the C-terminus of GST; His6 (C); made in house; host or cells: E. coli BL21 (DE3) codon plus RP
T3 sequence (Q16186 18-131 limits assumed): as the sequence (Q16186 18-131 limits assumed) above
Experimental: As mentioned above, the Rpn13 PRU domain binds to the proteasome via association with a C-terminal peptide tail from Rpn2. […] The amount of protein retained on the resin was then evaluated using the same protocol described above.
This assay was conducted following the exact same procedure described above using two samples: GST-Rpn13 PRU (100 nM) alone, and GST-Rpn13 PRU (100 nM) that had been pretreated with Rpn2 peptide (100 μM) for 1 h at 4 °C. Each sample was added to separate wells of a microtiter plate.

SA [3] = settings: in solution; cited from earlier work
SA-647 = target: T4, SA-647 (Streptomyces avidinii, UniProt P22629); test: Dose-dependent binding of SA-647 to bead-displayed ligands by FACS (MFI); settings: SA-647 0.1 to 1000 nM
T4 construct: purchased ThermoFisher S3235
T4 sequence (P22629 37-163 limits assumed): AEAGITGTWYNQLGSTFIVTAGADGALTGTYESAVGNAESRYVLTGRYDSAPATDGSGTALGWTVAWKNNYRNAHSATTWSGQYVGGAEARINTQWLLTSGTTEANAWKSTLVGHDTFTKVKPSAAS
Experimental: We next asked if the bead binding assay could distinguish complexes with different affinities for SA. 10 μm TentaGel beads displaying compound 2, compound 3, the oxazole analogue of compound 2 (Figure S4), or the SA-binding macrocycle 1 shown in Figure a were exposed to different concentrations of SA-647 ranging from 0.1 to 1000 nM. After washing, the intensity of fluorescence retained on the beads was measured using a flow cytometer, and the results were plotted as the mean fluorescence intensity (MFI) on the beads vs the protein concentration. […] Macrocycle 1, which binds SA with a K D of about 600 nM in solution (more than 1000 times more tightly than compound 2), binds SA-647 on resin at far lower concentrations than does compound 2.

SA [4] = test: Affinity of macrocycle 1 for SA in solution; format: binding; settings: KD in solution against KD of compound 2
[5] = tested on: monomeric streptavidin (mSA-647); test: Bead pull-down with monomeric streptavidin; format: binding; settings: mSA-647 500 nM, 1 h, PBST, room temperature
Experimental: To investigate this, compound 2-displaying, compound 3-displaying, or blank (acetylated) beads were incubated with tetrameric SA-647 or iFluor647-conjugated monomeric streptavidin (mSA-647). Biotin-displaying beads (Figure S3) were also included in this experiment as a high-affinity comparator. […] No binding of either protein to compound 3-displaying beads was observed.
3 Stable binding of tetrameric SA to beads displaying compound 2 is highly dependent on avidity. […] Each compound was represented by 1 million 10 μm TentaGel beads, with 250,000 beads used per technical replicate. (b) Effect of ligand functionalization density on compound binding. Beads were functionalized with compound 2, compound 3, or biotin at varying surface densities (100% to 5%) and incubated with SA-647 (500 nM) for 1 h in PBST at room temperature as previously, before recording the fluorescence intensity.
(§1) General notes: • At each step, contents were mixed by pipetting up and down 3–5 times. • All steps following the addition of SA-647 were conducted in the dark. • SA-647 and mSA-647 were purchased from commercial sources; (SA-647: ThermoFisher cat#S3235, mSA-647: Millipore SAE178).

[6] = target: T5, tetrameric streptavidin (SA-647) (Streptomyces avidinii, UniProt P22629); test: Bead pull-down: SA-647 retained by compound-displaying TentaGel beads, plate reader; format: binding; settings: SA-647 500 nM
T5 construct: purchased ThermoFisher S3235
T5 sequence (P22629 37-163 limits assumed): as above
Description: Compounds 2 and 3 were then constructed on 10 μm TentaGel beads via straightforward solid-phase synthesis, along with acetylated beads, which as a “blank” (Figure c). TentaGel beads consist of an amino-polystyrene core onto which is grafted a thick layer of amine-terminated PEG chains. An additional mini-PEG spacer was incorporated prior to coupling the compounds to further improve spatial accessibility and aqueous display of the compounds (see Experimental Section for detailed synthesis). The beads were incubated with AlexaFluor 647-conjugated SA (SA-647) in phosphate-buffered saline supplemented with 0.05% Tween 20 (PBST) for 1 h at room temperature in the dark. Following incubation, the beads were washed thoroughly (see Experimental Section for a detailed protocol), then resuspended in PBST. The amount of fluorescent SA retained by the resin was analyzed using a Tecan multiwell plate reader equipped with appropriate excitation and emission filters (excitation at 650 nm, emission at 665 nm).
as §1
A 96-well Multiscreen hydrophilic assay plate (MilliporeSigma, MSBVN12) was activated by treating each well with 150 μL of 70% (v/v) ethanol in water. The solvent was removed under vacuum, and the wells were washed with PBST (3 × 150 μL). Fresh PBST (150 μL) was then added to each well.
The plate was drained and washed again with PBST (3 × 150 μL), followed by the addition of 150 μL PBST per well. Plates were shaken overnight at ambient temperature on an orbital plate shaker.
The next day, wells were drained and incubated with 150 μL of a 1:1 (v/v) solution of PBST:PBS blocking buffer (Thermo Scientific, 37538) for 1 h at room temperature. After removal of the blocking buffer, 100 μL PBST was added to each well and mixed thoroughly. A 20 μL aliquot from each well was transferred to a black 384-well flat-bottom plate (Corning, 3820) for background (blank) measurements.
The remaining PBST was removed, and the beads were incubated with SA-647 (500 nM in 1:1 PBST/blocking buffer, 150 μL per well) for 1 h at room temperature. After incubation, wells were washed with PBST while shaking (3 × 20 min). A final 150 μL PBST wash was performed and drained. Fresh PBST (80 μL) was added to each well, and the contents were transferred to labeled PCR tubes. Samples were briefly vortexed and mixed by pipetting.
Each sample was transferred to a black 384-well plate in triplicate (3 × 20 μL per well). The plate was sealed with a foil sticker and centrifuged at 250g for 1 min. Fluorescence intensity was measured using a TECAN plate reader. Background fluorescence (from blank wells) was subtracted prior to further data analysis.

Streptavidin (SA) = target: T6, Streptavidin (SA) (Streptomyces avidinii, UniProt P22629); test: SPR, soluble compound binding to immobilized streptavidin
T6 construct: purchased
Experimental: The SPR binding affinity testing was conducted using the BIAcore 1K system (Cytiva) with BIAcore Insight Control Software. Streptavidin (50 μg/mL in 10 mM pH 5.0 NaOAc) was immobilized on a CM5 sensor chip (Cytiva) via amide coupling, using HBS-EP+ (10 mM HEPES, 150 mM NaCl, 3 mM EDTA, and 0.05% v/v Surfactant P20) as the immobilization buffer. Approximately 1000 RU of immobilization was achieved. Testing compounds were evaluated using the multiple-cycle kinetic/affinity method in PBS-P+ running buffer (20 mM phosphate buffer, 2.7 mM KCl, 137 mM NaCl, and 0.05% Surfactant P20), with a 200 s association time, 200 s dissociation time, and a flow rate of 45 μL/min. Binding affinities for the testing compounds were determined by fitting the sensor grams to both the 1:1 binding kinetics and steady-state affinity models provided in the BIAcore Insight Evaluation Software.

[7] = target: T5, tetrameric streptavidin (SA-647); test: Bead pull-down: SA-647 retained by compound-displaying TentaGel beads, plate reader; format: binding; settings: SA-647 (100 nM), plate reader
[8] = soluble mini-PEG attached compound, immobilized SA, read-out: KD (SPR)

SMILES: NC(=O)CNC(=O)COCCOCCNC(=O)CNC(=O)c1ccc2nc(-c3ccncc3)[nH]c2c1 [A63]
- KD (SPR) (Rpn13 PRU; soluble compound, biotinylated Rpn13 PRU immobilized on SA chip): A similar result
- Kd (Rpn13 PRU; supplementary CSV, solution dissociation constants, read-out: KD for Rpn13 PRU): > 2000 µM
- fluorescence intensity in GST-Rpn13 PRU screen [1]: above-background fluorescence
- effect of soluble Rpn2 peptide competitor on binding of GST-Rpn13 PRU [2]: strongly suppressed binding

SMILES: NC(=O)CNC(=O)COCCOCCNC(=O)CNC(=O)c1cnc2[nH]ccc2c1 [A85]
- Kd (Rpn13 PRU; soluble compound, biotinylated Rpn13 PRU immobilized on SA chip, read-out: KD (SPR)): > 2000 µM
- fluorescence intensity in GST-Rpn13 PRU screen [1]: above-background fluorescence
- effect of soluble Rpn2 peptide competitor on binding of GST-Rpn13 PRU [2]: strongly suppressed binding

SMILES: NC(=O)[C@H]1CSCc2cccc(c2)C(=O)N(Cc2cccnc2)Cc2nc(cs2)C(=O)N(Cc2ccc(F)c(F)c2)Cc2nc(co2)C(=O)N1 [Compound 1]
- Kd (SA [3]): ~0.6 µM
- dose-dependent binding of SA-647 (MFI by flow cytometer) (SA-647): dose-dependent binding
- tighter binding to SA than compound 2 (SA [4]): more than 1000 times

SMILES: CC(=O)N(Cc1ccccc1)Cc1nc(C(=O)N(C)CC(=O)NCCOCCOCC(=O)NCC(N)=O)cs1 [Compound 3]
- dose-dependent binding of SA-647 (MFI by flow cytometer) (SA-647): not
- binding of mSA-647 to bead-displayed ligand [5]: No binding
- Fluorescence intensity, Average ([6]; 12 replicates, after background subtraction, Z' calculation): 177
- binding of SA-647 to bead-displayed compound (fluorescence) ([6]; 1 h, PBST, room temperature, after washing): failed to retain more labeled SA than the acetylated “blank” beads; also recorded: No binding
- Fluorescence intensity, individual replicate ([6]; replicates 1-12, after background subtraction, Z' calculation): 76 and 119 and 260 and 226 and 50 and 156 and 122 and 81 and 136 and 180 and 145 and 568
- binding to SA by SPR (in words) (Streptavidin (SA); soluble compound, immobilized SA): no detectable binding

SMILES: CN(CC(=O)NCCOCCOCC(=O)NCC(N)=O)C(=O)c1csc(CN(Cc2cccnc2)C(=O)C2CCC(=O)C2)n1 (centres unmarked) [Compound 4]
- improvement of KD over the parent compound 2 (Streptavidin (SA); SPR, immobilized SA): 7.8 fold
- Kd (Streptavidin (SA); [8]): 90 µM
- SA-647 retained by bead-displayed grown compound relative to parent compound 2 [7]: retained the most SA-647

- Kd (Streptavidin (SA); supplementary CSV, solution dissociation constants, read-out: KD for SA): 160 µM
SMILES: CN(CC(=O)NCCOCCOCC(=O)NCC(N)=O)C(=O)c1csc(CN(Cc2cccnc2)C(=O)c2ccc(F)c(C#N)c2)n1 [Compound 5]

SMILES: CN(CC(=O)NCCOCCOCC(=O)NCC(N)=O)C(=O)c1csc(CN(Cc2cccnc2)C(=O)c2ccc(F)c(F)c2)n1 [Compound 6]
- Kd (Streptavidin (SA); [8]): 330 µM
- SA-647 retained by bead-displayed grown compound relative to parent compound 2 [7]: captured less SA-647 than bead-displayed 4 but more than bead-displayed 2

SMILES: CN(CC(=O)NCCOCCOCC(=O)NCC(N)=O)C(=O)c1csc(CN(Cc2cccnc2)C(=O)c2ccc3[nH]ccc3c2)n1 [Compound 7]
- Kd (Streptavidin (SA); [8]): 780 µM
- SA-647 retained by bead-displayed grown compound relative to parent compound 2 [7]: retained less SA-647 than compound 2

SMILES: O=C(O)CCCC[C@@H]1SC[C@@H]2NC(=O)N[C@@H]21 [biotin, reference compound]
- binding of mSA-647 to bead-displayed ligand [5]: readily observable
- dependence of SA-647 retention on ligand density ([6]; site functionalization 100% to 5%): insensitive to ligand density
